Assay results reported in patent publication US10633375B2, “Oxopicolinamide derivative, preparation method therefor and pharmaceutical use thereof” (Jiangsu Hengrui Medicine Co., Ltd., priority 2016, dated 2020).

Key:
human blood = assay: In vitro anticoagulant effect on human blood (APTT, CT2); conditions: Table 2; concentration corresponding to 2 times the APTT of the blank control, human plasma
Method: Test Example 2: Determination of In Vitro Anticoagulant Effect of the Compounds of the Present Invention on Human Blood
1. Experimental Materials
Plasma: Human blood was collected in blood collection tubes containing no anticoagulant, and then 3.8% sodium citrate (volume ratio 1:9) was added. The tubes were centrifuged at 2500 rpm for 10 minutes at room temperature, and then the plasma was collected and stored at −80° C.;
Reagents: APTT reagent (Activated partial thromboplastin time assay kit, SIEMENS, Art. No. B4218-1), calcium chloride solution;
Instrument: Coagulation instrument (SYSMEX, CA-500).
The divided plasma was melted at room temperature and mixed well. 10000 μM the test compound dissolved in 100% DMSO was diluted to 3000, 300, 200, 150, 75, 30, 10, 3, 0.3 μM with 100% DMSO, and the blank was 100% DMSO. The reagent, plasma, and compound were placed in corresponding positions in the coagulation instrument, and APTT detection of the compound was carried out.
Curve fitting was carried out by graphpad and CT2 was calculated, i.e., the concentration of the compound corresponding to 2 times the APTT of the blank control.

[1] = target: Coagulation Factor XIa protease (Homo sapiens (Human), UniProt P03951); assay: Inhibition of Factor XIa detected by absorption photometry; type: biochemical; conditions: absorbance at 405 nm, 10 minutes at 37° C.
Chain of Coagulation Factor XIa protease (P03951 388-625): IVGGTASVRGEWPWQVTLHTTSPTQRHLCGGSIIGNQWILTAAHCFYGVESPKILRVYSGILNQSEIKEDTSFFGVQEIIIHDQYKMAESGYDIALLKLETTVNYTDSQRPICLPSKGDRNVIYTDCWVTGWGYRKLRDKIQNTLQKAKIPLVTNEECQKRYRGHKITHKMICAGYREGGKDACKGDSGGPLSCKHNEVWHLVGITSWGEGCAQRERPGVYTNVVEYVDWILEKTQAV
Chain of Coagulation Factor XIa protease (P03951 19-387 partner): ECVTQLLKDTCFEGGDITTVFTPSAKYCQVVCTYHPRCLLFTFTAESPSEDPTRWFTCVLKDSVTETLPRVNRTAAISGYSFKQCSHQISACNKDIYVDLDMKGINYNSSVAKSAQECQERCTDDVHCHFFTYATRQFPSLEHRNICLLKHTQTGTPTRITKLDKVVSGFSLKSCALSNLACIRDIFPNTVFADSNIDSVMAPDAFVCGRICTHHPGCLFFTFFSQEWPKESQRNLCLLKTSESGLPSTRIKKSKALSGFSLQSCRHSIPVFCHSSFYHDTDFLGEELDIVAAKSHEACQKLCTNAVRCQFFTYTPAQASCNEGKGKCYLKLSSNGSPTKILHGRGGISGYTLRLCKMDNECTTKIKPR
How it was run: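 Compounds were serially diluted in 100% DMSO (200-0.002 μM dilution series) before addition to the wells. FXIa enzyme solution at 2.5 μg/ml and substrate solution at 2 mM were then added, both stock concentrations. After 10 min at 37° C., absorbance was read at 405 nm.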

IC50 [1] [nM] | Structure (SMILES) | CT2, concentration doubling APTT (human blood) [µM]
36 | COc1cn([C@@H](Cc2ccccc2)C(=O)Nc2ccc3nn(C)cc3c2)c(=O)cc1-c1cc(Cl)ccc1C(C)=O [Example 20, (S)-2-(4-(2-acetyl-5-chlorophenyl)-5-methoxy-2-oxopyridin-1(2H)-yl)-N-(2-methyl-2H-indazol-5-yl)-3-phenylpropanamide] | 6.5
29 | CCNC(=O)c1ccc(NC(=O)[C@H](Cc2ccccc2)n2cc(OC)c(-c3cc(Cl)ccc3C(C)=O)cc2=O)cc1 [Example 37, (S)-4-(2-(4-(2-acetyl-5-chlorophenyl)-5-methoxy-2-oxopyridin-1 (2H)-yl)-3-phenylpropanamido)-N-ethylbenzamide] | 7.8
38 | COc1cn(C(Cc2ccccc2)C(=O)Nc2ccc(C(=O)O)cc2)c(=O)cc1-c1cc(Cl)ccc1C(=O)CC1CC1 (stereo not shown) [Example 39, 4-(2-(4-(5-chloro-2-(2-cyclopropylacetyl)phenyl)-5-methoxy-2-oxopyridin-1(2H)-yl)-3-phenylpropanamido)benzoic acid] | 8.3
2680 | COc1cn([C@H](Cc2ccccn2)C(=O)Nc2ccc(C(=O)O)cc2)c(=O)cc1-c1cc(Cl)ccc1C(C)=O [Example 81, (R)-4-(2-(4-(2-acetyl-5-chlorophenyl)-5-methoxy-2-oxopyridin-1(2H)-yl)-3-(pyridin-2-yl)propanamido)benzoic acid] | >10000
92 | COc1cn([C@@H](Cc2ccccn2)C(=O)Nc2ccc(C(N)=O)cc2)c(=O)cc1-c1cc(Cl)ccc1C(C)=O [Example 85, (S)-4-(2-(4-(2-acetyl-5-chlorophenyl)-5-methoxy-2-oxopyridin-1(2H)-yl)-3-(pyridin-2-yl)propanamido)benzamide] | 6.5
42 | COc1cn([C@@H](Cc2cccc(C#N)c2)C(=O)Nc2ccc(C(=O)O)cc2)c(=O)cc1-c1cc(Cl)ccc1C(C)=O [Example 89, (S)-4-(2-(4-(2-acetyl-5-chlorophenyl)-5-methoxy-2-oxopyridin-1(2H)-yl)-3-(3-cyanophenyl)propanamido)benzoic acid] | 5.7
42 | COc1cn(C(Cc2ccn(C3CC3)n2)C(=O)Nc2ccc(C(=O)O)cc2)c(=O)cc1-c1cc(Cl)ccc1C(C)=O (stereo not shown) [Example 93, 4-(2-(4-(2-acetyl-5-chlorophenyl)-5-methoxy-2-oxopyridin-1(2H)-yl)-3-(1-cyclopropyl-1H-pyrazol-3-yl)propanamido)benzoic acid] | 2.9
24 | COc1cn([C@@H](Cc2ccn(C3CC3)n2)C(=O)Nc2ccc(C(=O)O)cc2)c(=O)cc1-c1cc(Cl)ccc1C(C)=O [Example 94, (S)-4-(2-(4-(2-acetyl-5-chlorophenyl)-5-methoxy-2-oxopyridin-1(2H)-yl)-3-(1-cyclopropyl-1H-pyrazol-3-yl)propanamido)benzoic acid] | 2.2
32 | COc1cn(C(Cc2ccn(C3CC3)n2)C(=O)Nc2ccc3nccnc3c2)c(=O)cc1-c1cc(Cl)ccc1C(C)=O (stereo not shown) [Example 96, 2-(4-(2-acetyl-5-chlorophenyl)-5-methoxy-2-oxopyridin-1(2H)-yl)-3-(1-cyclopropyl-1H-pyrazol-3-yl)-N-(quinoxalin-6-yl)propanamide] | 6.7
36 | COc1cn(C(Cc2ccn(C3CC3)n2)C(=O)Nc2ccc3nn(C)cc3c2)c(=O)cc1-c1cc(Cl)ccc1C(C)=O (stereo not drawn) [Example 97, 2-(4-(2-acetyl-5-chlorophenyl)-5-methoxy-2-oxopyridin-(2H)-yl)-3-(l-cyclopropyl-1H-pyrazol-3-yl)-N-(2-methyl-2H-indazol-5-yl)propanamide] | 5.4
40 | COc1cn(C(Cc2ccn(C3CC3)n2)C(=O)Nc2ccc3ncncc3c2)c(=O)cc1-c1cc(Cl)ccc1C(C)=O (stereo not shown) [Example 98, 2-(4-(2-acetyl-5-chlorophenyl)-5-methoxy-2-oxopyridin-1(2H)-yl)-3-(1-cyclopropyl-1H-pyrazol-3-yl)-N-(quinazolin-6-yl)propanamide] | 7.6
– | [2H]C([2H])([2H])Oc1cn([C@H](Cc2ccccc2)C(=O)Nc2ccc(C(=O)O)cc2)c(=O)cc1-c1cc(Cl)ccc1C(C)=O [Example 180, 4-[[(2R)-2-[4-(2-acetyl-5-chloro-phenyl)-2-oxo-5-(trideuteromethoxy)-1-pyridyl]-3-phenyl-propionyl]amino]benzoic acid] | >10000
– | [2H]c1c([2H])c([2H])c(C([2H])([2H])[C@@H](C(=O)Nc2ccc(C(=O)O)cc2)n2cc(OC)c(-c3cc(Cl)ccc3C(C)=O)cc2=O)c([2H])c1[2H] [Example 181, 4-[[(2S)-2-[4-(2-acetyl-5-chloro-phenyl)-5-methoxy-2-oxo-1-pyridyl]-3,3-dideutero-3-(2,3,4,5,6-pentadeuterophenyl)propionyl]amino]benzoic acid] | 2.3
– | [2H]C([2H])([2H])C(=O)c1ccc(Cl)cc1-c1cc(=O)n([C@@H](Cc2ccccc2)C(=O)Nc2ccc(C(=O)O)cc2)cc1OC [Example 183, 4-[[(2S)-2-[4-[5-chloro-2-(2,2,2-trideuteroacetyl)phenyl]-5-methoxy-2-oxo-1-pyridyl]-3-phenyl-propionyl]amino]benzoic acid] | 2.6
– | [2H]C([2H])([2H])C(=O)c1ccc(Cl)cc1-c1cc(=O)n([C@H](Cc2ccccc2)C(=O)Nc2ccc(C(=O)O)cc2)cc1OC [Example 184, 4-[[(2R)-2-[4-[5-chloro-2-(2,2,2-trideuteroacetyl)phenyl]-5-methoxy-2-oxo-1-pyridyl]-3-phenyl-propionyl]amino]benzoic acid] | >10000

Structure (SMILES) | IC50 [1] [nM] | CT2, concentration doubling APTT (human blood) [µM]
COCCC(C(=O)Nc1ccc2[nH]c(C(=O)O)cc2c1)n1cc(OC)c(-c2cc(Cl)ccc2C(C)=O)cc1=O (stereo not shown) [Example 1, 5-(2-(4-(2-acetyl-5-chlorophenyl)-5-methoxy-2-oxopyridin-1(2H)-yl)-4-methoxybutanamido)-1H-indole-2-carboxylic acid] | 34 | 4.4
COCC[C@@H](C(=O)Nc1ccc2[nH]c(C(=O)O)cc2c1)n1cc(OC)c(-c2cc(Cl)ccc2C(C)=O)cc1=O [Example 2, (S)-5-(2-(4-(2-acetyl-5-chlorophenyl)-5-methoxy-2-oxopyridin-1(2H)-yl)-4-methoxybutanamido)-1H-indole-2-carboxylic acid] | 19 | 2.9
COCC[C@H](C(=O)Nc1ccc2[nH]c(C(=O)O)cc2c1)n1cc(OC)c(-c2cc(Cl)ccc2C(C)=O)cc1=O [Example 3, (R)-5-(2-(4-(2-acetyl-5-chlorophenyl)-5-methoxy-2-oxopyridin-1 (2H)-yl)-4-methoxybutanamido)-1H-indole-2-carboxylic acid] | 1740 | >10000
CCC(=O)c1ccc(Cl)cc1-c1cc(=O)n(C(Cc2ccccc2)C(=O)Nc2ccc(C(=O)O)cc2)cc1OC (stereo not shown) [Example 8, 4-(2-(4-(5-chloro-2-propionylphenyl)-5-methoxy-2-oxopyridin-1(2H)-yl)-3-phenylpropanamido)benzoic acid] | 17 | 6.4
